Results on seven molecules are retold here after paper PMC10376129, “Mechanistic Understanding of Idiosyncratic Drug-Induced Hepatotoxicity Using Co-Cultures of Hepatocytes and Macrophages” (Antioxidants, 2023).

Data set [1] has as its system HepG2 cells. In words: MTT cytotoxicity in HepG2 monocultures. Format: cell-based, human. The conditions noted are these: for effects on the viability: LPS and IFN-γ together, HepG2 cells, Supplementary Figure S1; for CC50: Homo sapiens, HepG2 monoculture, 24 h exposure, in presence of LPS and IFN-γ, read-out: IC50 values. Here is the method:
HepG2 cells (ECACC No. 85011430) were cultured in Ham’s F-12/Leibovitz L-15 (1:1 v/v), supplemented with 7% FBS, 50 U of penicillin/mL, and 50 μg of streptomycin/mL.
HepG2 cells were seeded at a density of 47,000 cells/cm^2 as a monoculture control for all the experiments.
(§1) For the toxicity studies, HepG2 cells alone or in co-culture with different proportions of M1 macrophages were seeded in 96-well plates (15,000 cells/well) and were allowed to grow and equilibrate for 24 h. Then, cells were exposed for 24 h to eight concentrations of the tested compounds (TVX, LVX, TGZ, RGZ). Each experimental condition was assayed in triplicate wells. Test compounds were diluted in DMSO, and then easily diluted in the culture medium to obtain the desired final concentrations (Table 1). The final DMSO concentration in the culture medium never exceeded 0.5% (v/v), and the control cultures were treated with the same amount of solvent.
(§2) Cytotoxicity was assessed by means of the tetrazolium reduction colorimetric assay (MTT test) as previously described in detail.

Data set [2] relates to THP-1 cells. Nature of the data set: Viability of THP-1 cells after differentiation to pro-inflammatory macrophages. Format: cell-based, human. The conditions noted are these: PMA 50 ng/mL for differentiation followed by LPS and IFN-γ. Here is the method:
(§3) THP-1 cells were differentiated to macrophages via incubation with phorbol-12-myrsitate 13-acetate (PMA, 20 or 50 ng/mL) for 72 h. After differentiation, THP-1 cells became adherent with typical macrophage morphology. To generate M1 macrophages, cells were then stimulated with LPS (1 µg/mL) in the presence or absence of interferon γ (IFN-γ) (20 ng/mL) as described in Figure 1.

Data set [3] concerns co-cultures of HepG2 and M1-THP-1 cells. Nature of the data set: MTT cytotoxicity in direct co-cultures of HepG2 and M1-THP-1 macrophages. The conditions noted are these: Homo sapiens, HepG2, 24 h, 24 h exposure. In kind it is cell-based. Here is the method:
as §3
For subculturing purposes, cells (HepG2 or THP-1) were detached via treatment with 0.25% trypsin/0.02% EDTA at 37 °C. In order to determine the effect of pro-inflammatory macrophages on HepG2 cells, different co-culture conditions were tested. Co-culture proportions were 1:10, 1:5, and 1:2 (M1:HepG2), respectively. Cells were seeded at 47,000 cells/cm^2 per condition and co-culture media consisted of HepG2 and M1-THP-1 cell culture media (1:1). The schedule followed for co-culturing HepG2 cells and M1-THP-1 macrophages is exemplified in Figure 2.
as §1, §2

Data set [4] deals with HepG2 cells and co-cultures at different ratios (1:10, 1:5, and 1:2). Nature of the data set: Gene expression (RT-qPCR) of oxidative stress, GSH-related and apoptotic genes in treated cultures. In kind it is cell-based, human. The text has this: Total RNA was extracted using the RNeasy Plus Mini Kit (Qiagen, Madrid, Spain), and was reverse transcribed as described elsewhere. Diluted cDNA was amplified using LightCycler DNA Master SYBR Green I (Roche Applied Science, Barcelona, Spain) and the appropriate primers (Supplementary Table S2) were amplified using a LightCycler 480 Instrument (Roche Applied Science, Barcelona, Spain). For normalization, porphobilinogen deaminase (PBGD), TATA box binding protein (TBP), Large Ribosomal Subunit Protein UL10 (RPLP0), and actin were used. During each amplification, a reference calibrator cDNA, made from a pool of human livers, was included. The relative mRNA expression was calculated using the LightCycler Relative Quantification Analysis software verson 1.5.0.39. Based on PCR efficiencies and the cycle thresholds, the relative concentration of the target and reference cDNAs and their ratio were determined. Additionally, gene expression analysis of test systems alone or treated with the selected toxic compounds was also performed as indicated in Section 2.3.2. For toxicotranscriptomics studies, cells were seeded in P12-well plates at a density of 47,000 cells/cm^2.

On the set-up of data set [5]: method as in PMID 18524759. The conditions noted are these: cited from earlier work.
Data set [6] concerns HepG2 monocultures and different co-cultures of HepG2 and M1-THP-1 cells. Nature of the data set: Concentration-dependent toxicity compared across test systems (MTT viability). Format: cell-based. As to conditions: 24 h exposure; for concentrations producing significant cell death / decrease in viability: Figure 6; for effect on viability in co-cultures compared to monocultures of HepG2 cells: co-culture ratios 1:10, 1:5, 1:2. Here is the method:
as §1, §2
Data represent triplicate measurements and are expressed as the mean ± SD. Student’s t-test was used for statistical evaluations between two groups, whereas one-way ANOVA followed by Tukey’s multiple comparisons test was used when comparing 3 or more groups. The level of significance was chosen as p < 0.05 and calculated using GraphPad Prism v. 8.4.3.

The mark [7] stands for this setting: 100 µM, compared to non-treated cells.

Entries after “also recorded” stand apart in the source; their conditions may differ.

Take lipopolysaccharide [LPS]: the “effects on the viability” value in data set [1] is recorded as “No significant effects on the viability”.
In turn, `CCCCCCCCCCCCCC(=O)O[C@@H]1[C@@H](C)[C@@]2(O)[C@@H](C=C(CO)C[C@]3(O)C(=O)C(C)=C[C@@H]23)[C@@H]2C(C)(C)[C@]12OC(C)=O` [PMA, phorbol-12-myrsitate 13-acetate] registered a viability after differentiation in data set [2] of 79 ± 5.
Consider `N[C@@H]1[C@H]2CN(c3nc4c(cc3F)c(=O)c(C(=O)O)cn4-c3ccc(F)cc3F)C[C@@H]12` [Trovafloxacin], for which the results for the half-maximal inhibitory concentration (IC50) in data set [3] (Co-culture 1.10 (M1:HepG2)), in data set [3] (Co-culture 1.2 (M1:HepG2)) and in data set [3] (Co-culture 1.5 (M1:HepG2)) were 531 µM, 74 µM and 529 µM, respectively. The “mRNA levels of Nfr2 pathway, GSH-related enzymes and apoptotic genes” value (shortened to “mRNA levels of Nfr2 pathway”) in data set [4] (25 µM, 24 h, compared to non-treated cultures, listed as TVX) is “reduced the GSTT1, GSTT2, GSTA2, GSTA4, NNQO1, GPX1, GPX2, and GPX4 levels in all the culture conditions; also recorded: Increased levels of AT4 and SOD2”. Besides, the highest concentration (Cmax) in data set [5] is 4.1 µM. Moreover, the CC50 in data set [1] was determined as 675 µM. Moreover, the “concentrations producing significant cell death / decrease in viability” value in data set [6] is “higher than 50 µM”. Besides, the “effect on viability in co-cultures compared to monocultures of HepG2 cells” value (“effect … compared to monocultures of HepG2 cells” for short) in data set [6] is on record as “A synergistic effect was detected in the co-cultures”.
Take `CN(CCOc1ccc(CC2SC(=O)NC2=O)cc1)c1ccccn1` (stereo not drawn) [Rosiglitazone]: the IC50 in data set [3] (Co-culture 1.10 (M1:HepG2)), in data set [3] (Co-culture 1.2 (M1:HepG2)) and in data set [3] (Co-culture 1.5 (M1:HepG2)) was > 250 µM each time. The “mRNA levels of Nfr2 pathway” value in data set [4] (setting [7]) was “produced increases in the expression of GCLM, TXNRD1, and DDIT”. For the same molecule, the CC50 in data set [1] is > 250 µM. Besides, the “concentrations producing significant cell death / decrease in viability” value in data set [6] is on record as “higher than 200 µM”. For the same molecule, the “effect … compared to monocultures of HepG2 cells” value in data set [6] is “no significant differences between the test systems were found”.
As to `Cc1c(C)c2c(c(C)c1O)CCC(C)(COc1ccc(CC3SC(=O)NC3=O)cc1)O2` (stereo not drawn) [Troglitazone], the IC50 in data set [3] (Co-culture 1.10 (M1:HepG2)) was determined as 208 µM; in data set [3] (Co-culture 1.2 (M1:HepG2)), 188 µM; in data set [3] (Co-culture 1.5 (M1:HepG2)), 203 µM. The “mRNA levels of Nfr2 pathway” value in data set [4] (setting [7]) was “increased the GCLM, DDIT, and TXNRD1 levels and reduced the GSTA2, GSTA4, GSTT1, and GPX2 levels”. The CC50 in data set [1] was determined as 223 µM. For the same molecule, in data set [6], the “concentrations producing significant cell death / decrease in viability” value is recorded as “higher than 100 µM”. In addition, in data set [6], the “effect … compared to monocultures of HepG2 cells” value is “decrease in the viability was more significant in the co-cultures at the highest ratios of M1 cells”.
Consider `C[C@H]1COc2c(N3CCN(C)CC3)c(F)cc3c(=O)c(C(=O)O)cn1c23` [Levofloxacin], for which the IC50 in data set [3] (Co-culture 1.10 (M1:HepG2)), in data set [3] (Co-culture 1.2 (M1:HepG2)) and in data set [3] (Co-culture 1.5 (M1:HepG2)) was > 800 µM in each case. Also, the “mRNA levels of Nfr2 pathway” value in data set [4] (25 µM, 24 h, compared to non-treated cultures) was “did not significantly change the gene expression”. In addition, in data set [5], the Cmax is 15.7 µM. Further, the CC50 in data set [1] was > 800 µM. In addition, in data set [6], the “concentrations producing significant cell death / decrease in viability” value is > 750 µM. Further, the “effect … compared to monocultures of HepG2 cells” value in data set [6] is “no synergic effect was observed”.

B1: interferon γ (protein, UniProt P01579 24-161, looked up)
Interferon gamma: QDPYVKEAENLKKYFNAGHSDVADNGTLFLGILKNWKEESDRKIMQSQIVSFYFKLFKNFKDDQSIQKSVETIKEDMNVKFFNSNKKKRDDFEKLTNYSVTDLNVQRKAIHELIQVMAELSPAAKTGKRKRSQMLFRG
notes: cytokine used with LPS to generate M1 macrophages
With B1, the “effects on the viability” value in data set [1] was “No significant effects on the viability”.
